Among the test systems are EKVX; DLD-1; K562; HCT-15; HCC 2998; OVCAR-4; SNB-75; IGROV-1; UACC-257; NCI-H226; SF-539; MOLT-4; DMS-114; OVCAR-8; HCT-116; UACC-62.
What all share (assay): inhibition of tumour cell growth, NCI panel, 48 h

Molecules are shown by their SMILES.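 All cell lines were grown in 96-well plates and treated with compound for 48 hours. The concentration for 50% growth inhibition is given as GI50.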 Active and inactive are the calls of the source. Cut-off read from the data, not from the text of the source: active = GI50 up to about 1.1 µM and inactive = higher.

Take `CCc1ccccc1-n1c2nc(=O)n(C)c(=O)c-2nc2ccccc21`: the GI50 is 12.1 µM (inactive) in the assay with EKVX; 16.3 µM (inactive) with DLD-1; 12.1 µM (inactive) with K562; 10 µM in the assay on HCT-15; 11.1 µM (inactive) in the assay with HCC 2998; 4.89 µM (inactive) with OVCAR-4. Besides, the GI50 in the assay on SNB-75 is 14.2 µM (inactive); with IGROV-1, 17.5 µM (inactive); in the assay with UACC-257, 5.11 µM (inactive); in the assay with NCI-H226, 18.4 µM (inactive); with SF-539, 14.1 µM (inactive); in the assay on MOLT-4 it was 13.2 µM (inactive). The GI50 with DMS-114 is 3.83 µM (inactive); in the assay on OVCAR-8 it was 5.96 µM (inactive); with HCT-116, 12.6 µM (inactive); with UACC-62, 2.2 µM (inactive).
Turning to `Cc1nc(C(N)=S)sc1C(=O)/C=C/c1c(O)ccc2ccccc12`, the GI50 in the assay on EKVX is > 100 µM (inactive); in the assay on DLD-1 it was 72.4 µM (inactive); with K562 it was 25.9 µM (inactive); in the assay with HCT-15, over 95.9 µM; in the assay on HCC 2998, > 100 µM (inactive); in the assay on OVCAR-4 it was > 100 µM (inactive). Moreover, the GI50 was 53.7 µM (inactive) in the assay on SNB-75; > 100 µM (inactive) in the assay with IGROV-1; > 75.9 µM (inactive) with UACC-257; > 100 µM (inactive) with NCI-H226; 70.1 µM (inactive) with SF-539; 21.2 µM (inactive) with MOLT-4. In addition, the GI50 in the assay on DMS-114 was 32.5 µM (inactive); with OVCAR-8, 68.5 µM (inactive); with HCT-116, 80.2 µM (inactive); in the assay with UACC-62 it was 29.6 µM (inactive).
Consider `Cc1ccc(C(=O)/C=C/c2ccccc2Cl)cc1`, for which the GI50 in the assay with EKVX is 19.2 µM (inactive); in the assay on DLD-1 it was 19.8 µM (inactive); in the assay on K562, 19.7 µM (inactive); in the assay on HCT-15 it was 15 µM; in the assay on HCC 2998, 18.5 µM (inactive); with OVCAR-4 it was 17.1 µM (inactive). Moreover, the GI50 with SNB-75 is 19.1 µM (inactive); with IGROV-1, 18.4 µM (inactive); in the assay on UACC-257, 15.4 µM (inactive); with NCI-H226 it was 25.1 µM (inactive); with SF-539 it was 21.2 µM (inactive); in the assay with MOLT-4 it was 19.6 µM (inactive). Also, the GI50 in the assay with DMS-114 was 18.3 µM (inactive); in the assay with OVCAR-8 it was 15.8 µM (inactive); with HCT-116, 11.8 µM (inactive); in the assay with UACC-62 it was 14.3 µM (inactive).
Turning to `Nc1nc(NC2C=C(CO)C(O)C2O)c([N+](=O)[O-])c(=O)[nH]1` (stereo not drawn), the GI50 in the assay with EKVX is > 100 µM (inactive); in the assay on DLD-1 it was > 100 µM (inactive); with K562, > 100 µM (inactive); with HCT-15 it was over 100 µM; in the assay on HCC 2998, > 100 µM (inactive); in the assay with OVCAR-4 it was > 100 µM (inactive). Besides, the GI50 in the assay on SNB-75, in the assay on IGROV-1, in the assay with UACC-257, in the assay with NCI-H226, with SF-539 and with MOLT-4 was > 100 µM (inactive) throughout. In addition, the GI50 in the assay with DMS-114, in the assay with OVCAR-8, in the assay on HCT-116 and in the assay with UACC-62 was > 100 µM (inactive) throughout.
On to `COc1cc(C=O)c(-c2cc(OC)c(OC)cc2C=O)cc1OC`, for which the GI50 is > 100 µM (inactive) in the assay on EKVX; 65 µM (inactive) in the assay on DLD-1; 36.7 µM (inactive) in the assay with K562; over 100 µM in the assay with HCT-15; > 100 µM (inactive) with HCC 2998; > 100 µM (inactive) with OVCAR-4. For the same molecule, the GI50 with SNB-75 is > 100 µM (inactive); in the assay on IGROV-1 it was > 100 µM (inactive); in the assay with UACC-257, > 100 µM (inactive); in the assay on NCI-H226, > 100 µM (inactive); in the assay with SF-539, > 100 µM (inactive); in the assay with MOLT-4 it was 50.6 µM (inactive). In addition, the GI50 in the assay on DMS-114 is 24.3 µM (inactive); with OVCAR-8, 91.4 µM (inactive); in the assay with HCT-116, 70.3 µM (inactive); in the assay with UACC-62, > 100 µM (inactive).
For `Cc1cc(NS(=O)(=O)c2ccc(Nc3c4ccccc4nc4c(C(=O)NCCN(C)C)ccc(Cl)c34)cc2)no1`, the GI50 is 8.34 µM (inactive) with EKVX; 3.94 µM (inactive) in the assay on DLD-1; 2.99 µM (inactive) in the assay with K562; 5.14 µM with HCT-15; 3.21 µM (inactive) in the assay on HCC 2998; 4.09 µM (inactive) with OVCAR-4. For the same molecule, the GI50 was 2.76 µM (inactive) with SNB-75; 3.56 µM (inactive) in the assay on IGROV-1; 1.85 µM (inactive) with NCI-H226; 3.14 µM (inactive) with SF-539; 0.28 µM (active) in the assay on MOLT-4; 0.867 µM (active) in the assay on DMS-114. Moreover, the GI50 is 1.12 µM (active) with OVCAR-8, 3.3 µM (inactive) with HCT-116 and 2.35 µM (inactive) in the assay with UACC-62.
For `C/C(CC(=O)CCC(=O)Nc1cccc(C(F)(F)F)c1)=N\NC(=O)NN`, the GI50 in the assay on EKVX is > 100 µM (inactive); in the assay with DLD-1 it was > 100 µM (inactive); in the assay on K562 it was > 100 µM (inactive); in the assay on HCT-15, over 100 µM; in the assay with HCC 2998, > 100 µM (inactive); in the assay on OVCAR-4 it was > 100 µM (inactive). Moreover, the GI50 with SNB-75, in the assay on IGROV-1, in the assay with UACC-257, with NCI-H226, in the assay on SF-539 and in the assay with MOLT-4 was > 100 µM (inactive) throughout. The GI50 in the assay on DMS-114, in the assay with OVCAR-8, with HCT-116 and in the assay with UACC-62 was > 100 µM (inactive) throughout.
In the case of `COc1ccc(/C=C/c2nnc(S)[nH]2)cc1`, the GI50 was > 100 µM (inactive) in the assay on EKVX; > 100 µM (inactive) in the assay on DLD-1; > 100 µM (inactive) with K562; over 100 µM in the assay on HCT-15; > 100 µM (inactive) in the assay on HCC 2998; > 100 µM (inactive) in the assay with OVCAR-4. The GI50 in the assay with SNB-75, in the assay with IGROV-1, in the assay with UACC-257, in the assay on NCI-H226, in the assay on SF-539 and in the assay on MOLT-4 was > 100 µM (inactive) throughout. The GI50 in the assay on DMS-114, in the assay on OVCAR-8, with HCT-116 and in the assay on UACC-62 was > 100 µM (inactive) throughout.
Regarding `CC(=O)OCC1OC(n2c(=O)n(-c3ccccc3)c(=O)c3ccccc32)C(OC(C)=O)C(OC(C)=O)C1OC(C)=O` (stereo not drawn), the GI50 was > 100 µM (inactive) in the assay on EKVX; > 100 µM (inactive) with DLD-1; > 100 µM (inactive) in the assay on K562; over 100 µM in the assay with HCT-15; > 100 µM (inactive) in the assay with HCC 2998; > 100 µM (inactive) in the assay on OVCAR-4. Also, the GI50 in the assay with SNB-75, with IGROV-1, with UACC-257, in the assay on NCI-H226, in the assay on SF-539 and with MOLT-4 was > 100 µM (inactive) throughout. Moreover, the GI50 in the assay with DMS-114 was > 100 µM (inactive); in the assay with OVCAR-8 it was > 100 µM (inactive); with HCT-116 it was 96.6 µM (inactive); in the assay on UACC-62, > 100 µM (inactive).

The values are drawn from ChEMBL document CHEMBL1201862, “PubChem BioAssay data set” (2004).
